Source: patent US9216968B2, “Heterocyclic derivative and pharmaceutical drug” (NIPPON SHINYAKU CO., LTD., priority 2011, dated 2015)
pIC50: −log10 of the molar value. Where a name gives a salt, the structure may show the parent alone.

Experiments:
human mPGES-1 = human mPGES-1 (Homo sapiens (Human), UniProt O14684); test: mPGES-1 inhibiting activity (microsome fractions, PGE2 by HTRF); assay type: biochemical; conditions: microsomes from CHO-K1 cells transfected with human mPGES-1; PGH2 1 μM, 4° C., 60 seconds; read-out: mPGES-1 Inhibition IC50
In short: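 PGE2 formation read by HTRF after 60 s at 4 °C with 1 μM PGH2 substrate, following 20 min compound preincubation (1% DMSO) with human mPGES-1 microsomes from transfected CHO-K1 cells. Buffer: potassium phosphate, reduced glutathione, pH 7.4; IC50 from activity relative to enzyme-free blank.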

A549 cells = test: Inhibition of PGE2 production in A549 cell (IL-1β stimulated); assay type: cell-based, human; conditions: IL-1β 5 ng/well, PGE2 in culture medium
In short: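 A549 cells preincubated 60 min with compound in RPMI/3% FBS (final DMSO 0.10), then stimulated with IL-1β (5 ng/well) for 24 h at 37 °C. PGE2 measured by HTRF and PGF2α by EIA in medium; IC50 from inhibition relative to stimulated minus unstimulated production.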

Chain of human mPGES-1 (O14684 whole entry): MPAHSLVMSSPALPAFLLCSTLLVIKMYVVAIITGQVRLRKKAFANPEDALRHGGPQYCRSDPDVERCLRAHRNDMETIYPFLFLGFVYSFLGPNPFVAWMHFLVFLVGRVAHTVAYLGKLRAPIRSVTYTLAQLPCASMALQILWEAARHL

SMILES | pIC50 (human mPGES-1) | pIC50 (A549 cells; Homo sapiens, A549, 24 h) | pIC50 (A549 cells; 24 hours, hydrochloride)
Cc1c(Cl)cccc1NC(=O)c1cc(NC(=O)c2c(F)cccc2Cl)cc2[nH]c(NC[C@H]3CCCO3)nc12 [Example 199, 6-{[(2-Chloro-6-fluorophenyl)-carbonyl]amino}-N-(3-chloro-2-methylphenyl)-2-{[(2R)-tetrahydrofuran-2-ylmethyl]amino}-1H-benzimidazole-4-carboxamide hydrochloride] | 8.01 | 7.36 | 
Cc1c(Cl)cccc1NC(=O)c1cc(NC(=O)c2ccccc2C(F)(F)F)cc2[nH]c(CC(=O)N(C)C)nc12 [Example 133, N-(3-Chloro-2-methylphenyl)-2-[2-(dimethylamino)-2-oxoethyl]-6-({[2-(trifluoromethyl)phenyl]carbonyl}amino)-1H-benzimidazole-4-carboxamide hydrochloride] | 8.15 | 6.31 | 
Cc1c(Cl)cccc1NC(=O)c1cc(NC(=O)c2ccccc2C(F)(F)F)cc2[nH]c(C(C)(C)C)nc12 [Example 76, 2-tert-Butyl-N-(3-chloro-2-methylphenyl)-6-({[2-(trifluoromethyl)phenyl]carbonyl}amino)-1H-benzimidazole-4-carboxamide hydrochloride] | 9.70 | 8.26 | 
CCOc1nc2c(C(=O)Nc3cccc(Cl)c3C)cc(NC(=O)c3ccccc3C(F)(F)F)cc2[nH]1 [Example 55, N-(3-Chloro-2-methylphenyl)-2-ethoxy-6-({[2-(trifluoromethyl)phenyl]carbonyl}amino)-1H-benzimidazole-4-carboxamide] | 8.57 | 7.19 | 
CCNc1nc2c(C(=O)Nc3cccc(Cl)c3C)cc(NC(=O)c3ccccc3C(F)(F)F)cc2[nH]1 [Example 139, N-(3-Chloro-2-methylphenyl)-2-(ethylamino)-6-({[2-(trifluoromethyl)phenyl]carbonyl}amino)-1H-benzimidazole-4-carboxamide hydrochloride] | 8.72 | 7.14 | 
Cc1c(Cl)cccc1NC(=O)c1cc(NC(=O)c2c(Cl)cccc2Cl)cc2[nH]c([C@H]3CCCO3)nc12 [Example 128, N-(3-Chloro-2-methylphenyl)-6-{[(2,6-dichlorophenyl)carbonyl]amino}-2-[(2R)-tetrahydrofuran-2-yl]-1H-benzimidazole-4-carboxamide hydrochloride] | 9.00 | 6.60 | 
COCc1nc2c(C(=O)Nc3cccc(Cl)c3C)cc(NC(=O)c3ccccc3Cl)cc2[nH]1 [Example 95, N-(3-Chloro-2-methylphenyl)-6-{[(2-chlorophenyl)carbonyl]amino}-2-(methoxymethyl)-1H-benzimidazole-4-carboxamide hydrochloride] | 8.29 | 6.98 | 
CCCNC(=O)c1cc(NC(=O)c2ccccc2C(F)(F)F)cc2[nH]c(COC)nc12 [Example 215, 2-(Methoxymethyl)-N-propyl-6-({[2-(trifluoromethyl)phenyl]carbonyl}amino)-1H-benzimidazole-4-carboxamide hydrochloride] | 6.85 | 6.11 | 
Cc1c(Cl)cccc1NC(=O)c1cc(NC(=O)c2ccccc2C(F)(F)F)cc2[nH]c(NCCN3CCCC3)nc12 [Example 152, N-(3-Chloro-2-methylphenyl)-2-{[2-(pyrrolidin-1-yl)ethyl]amino}-6-({[2-(trifluoromethyl)phenyl]carbonyl}amino)-1H-benz imidazole-4-carboxamide hydrochloride] | 7.50 | 6.07 | 
Cc1c(Cl)cccc1NC(=O)c1cc(NC(=O)c2ccccc2C(F)(F)F)cc2[nH]c([C@@H]3CCCN3C(=O)OC(C)(C)C)nc12 [Example 69, tert-Butyl (2S)-2-{4-[(3-chloro-2-methylphenyl)carbamoyl]-6-({[2-(trifluoromethyl)phenyl]carbonyl}amino)-1H-benzimidazol-2-yl}pyrrolidine 1-carboxylate] | 8.00 | 7.67 | 
CCc1nc2c(C(=O)Nc3cccc(Cl)c3C)cc(NC(=O)c3ccccc3C(F)(F)F)cc2o1 [Example 54, N-(3-Chloro-2-methylphenyl)-2-ethyl-6-({[2-(trifluoromethyl)phenyl]carbonyl}amino)-1,3-benzoxazole-4-carboxamide] | 7.63 | 6.65 | 
COCc1nc2c(C(=O)NCC3CCCCC3)cc(NC(=O)c3ccccc3C(F)(F)F)cc2[nH]1 [Example 218, N-(Cyclohexylmethyl)-2-(methoxymethyl)-6-({[2-(trifluoromethyl)phenyl]carbonyl}amino)-1H-benzimidazole-4-carboxamide hydrochloride] | 8.28 | 7.37 | 
COCc1nc2c(C(=O)NC3CCC(F)(F)CC3)cc(NC(=O)c3ccccc3C(F)(F)F)cc2[nH]1 [Example 26, N-(4,4-Difluorocyclohexyl)-2-(methoxymethyl)-6-({[2-(trifluoromethyl)phenyl]carbonyl}amino)-1H-benzimidazole-4-carboxamide hydrochloride] | 6.77 | 6.06 | 
Cc1ccc(NC(=O)c2cc(NC(=O)c3cc(Cl)ccc3Cl)cc3[nH]c(C(C)(C)C)nc23)cc1Cl [Example 88, 2-tert-Butyl-N-(3-chloro-4-methylphenyl)-6-{[(2,5-dichlorophenyl)carbonyl]amino}-1H-benzimidazole-4-carboxamide hydrochloride] | 7.82 | 8.04 | 
COCc1nc2c(C(=O)Nc3ccc(C(C)(C)C)cc3)cc(NC(=O)c3ccccc3C(F)(F)F)cc2[nH]1 [Example 27, N-(4-tert-Butylphenyl)-2-(methoxymethyl)-6-({[2-(trifluoromethyl)phenyl]carbonyl}amino)-1H-benzimidazole-4-carboxamide hydrochloride] | 8.62 | 7.80 | 
Cc1c(Cl)cccc1NC(=O)c1cc(NC(=O)c2ccccc2C(F)(F)F)cc2[nH]c(C3CCCO3)nc12 (stereo in doubt) [Example 66, N-(3-Chloro-2-methylphenyl)-2-[(2S)-tetrahydrofuran-2-yl]-6-({[2-(trifluoromethyl)phenyl]carbonyl}amino)-1H-benzimidazole-4-carboxamide hydrochloride] | 8.00 |  | 7.24
Cn1cnc2c(C(=O)NCc3ccccc3C(F)(F)F)cc(NC(=O)c3ccccc3C(F)(F)F)cc21 [Example 48, 1-Methyl-N-[2-(trifluoromethyl)benzyl]-6-({[2-(trifluoromethyl)phenyl]carbonyl}amino)-1H-benzimidazole-4-carboxamide] | 7.30 | 6.83 | 
COCc1nc2c(C(=O)Nc3cccc(Cl)c3C)cc(NC(=O)c3cc(Br)ccc3Cl)cc2[nH]1 [Example 106, 6-{[(5-Bromo-2-chlorophenyl)carbonyl]amino}-N-(3-chloro-2-methylphenyl)-2-(methoxymethyl)-1H-benzimidazole-4-carboxamide hydrochloride] | 8.35 | 7.20 | 
COCc1nc2c(C(=O)NCc3ccccc3Cl)cc(NC(=O)c3ccccc3C(F)(F)F)cc2[nH]1 [Example 24, N-(2-Chlorobenzyl)-2-(methoxymethyl)-6-({[2-(trifluoromethyl)phenyl]carbonyl}amino)-1H-benzimidazole-4-carboxamide hydrochloride] | 7.98 | 6.12 | 
Cc1c(Cl)cccc1NC(=O)c1cc(NC(=O)c2ccccc2C(F)(F)F)cc2[nH]c(NCC(C)(C)C)nc12 [Example 140, N-(3-Chloro-2-methylphenyl)-2-[(2,2-dimethylpropyl)amino]-6-({[2-(trifluoromethyl)phenyl]carbonyl}amino)-1H-benzimidazole-4-carboxamide hydrochloride] | 9.70 | 7.48 | 
COCc1nc2c(C(=O)Nc3ccccc3Cc3ccccc3)cc(NC(=O)c3ccccc3C(F)(F)F)cc2[nH]1 [Example 229, N-(2-Benzylphenyl)-2-(methoxymethyl)-6-({[2-(trifluoromethyl)phenyl]carbonyl}amino)-1H-benzimidazole-4-carboxamide hydrochloride] | 8.64 | 7.41 | 
CCn1cnc2c(C(=O)Nc3cccc(Cl)c3C)cc(NC(=O)c3ccccc3C(F)(F)F)cc21 [Example 49, N-(3-Chloro-2-methylphenyl)-1-ethyl-6-({[2-(trifluoromethyl)phenyl]carbonyl}amino)-1H-benzimidazole-4-carboxamide] | 7.00 | 6.43 | 
Cc1c(Cl)cccc1NC(=O)c1cc(NC(=O)c2ccccc2C(F)(F)F)cc2c1nc(NCC(C)(C)CO)n2C [Example 162, N-(3-Chloro-2-methylphenyl)-2-[(3-hydroxy-2,2-dimethylpropyl)amino]-1-methyl-6-({[2-(trifluoromethyl)phenyl]carbonyl}amino)-1H-benzimidazole-4-carboxamide hydrochloride] | 7.62 | 7.28 | 
COCc1nc2c(C(=O)Nc3cccc(Cl)c3C)cc(NC(=O)c3cc(C(F)(F)F)ccc3C(F)(F)F)cc2[nH]1 [Example 110, 6-({[2,5-Bis(trifluoromethyl)phenyl]carbonyl}amino)-N-(3-chloro-2-methylphenyl)-2-(methoxymethyl)-1H-benzimidazole-4-carboxamide hydrochloride] | 8.59 | 7.45 | 
COCc1nc2c(C(=O)Nc3cccc(Cl)c3C)cc(NC(=O)c3cccnc3Cl)cc2[nH]1 [Example 96, N-(3-Chloro-2-methylphenyl)-6-{[(2-chloropyridin-3-yl)carbonyl]amino}-2-(methoxymethyl)-1H-benzimidazole-4-carboxamide hydrochloride] | 7.47 | 6.90 | 
